Values of other authors as cited in patent US20060240493A1, “Cca1 as an antifungal target” (priority 2002, published 2006).

Settings: mice, DOX 2 mg/ml in 5% sucrose drinking water, approximately 5 ml every day

## C[C@H]1c2cccc(O)c2C(=O)C2=C(O)[C@]3(O)C(=O)C(C(N)=O)=C(O)[C@@H](N(C)C)[C@@H]3[C@@H](O)[C@@H]21 [doxycycline]
  concentration of DOX in kidney: > 10 mg/g of kidney
  concentration of DOX in liver: > 8 mg/g of liver
  concentration of DOX in serum: more than 2 mg/ml of serum
